Test results as given in patent publication US4477664A, “Novel 1-(4-piperidiniobenzyl)-2,3-dioxopiperazine derivatives or acid addition salts thereof” (Toyama Chemical Co., Ltd., priority 1979, dated 1984).
In brackets after ≈: the same amount, converted by molar mass. Like-named read-outs stand apart in the source and are kept apart here.

Tests used:
[1] = system: Ehrlich cells; assay: MIC value against Ehrlich cells (microplate method); type: cell-based; settings: 96 h, 2×10^4 cells/ml, 4 days, Giemsa staining
Source text: (§1) a. MIC value against HeLa S3 cells and Ehrlich cells (microplate method) Number of cells: 2×10^4 cells/ml Culture medium: Eagle's MEM+20% calf embryonic serum Culture time: 4 days Judgement: Giemsa staining

[2] = system: Ehrlich ascites carcinoma cells; assay: Effect on Ehrlich carcinoma (ii): subcutaneous inoculation at inguinal region, mean tumor weight; type: in vivo, ICR-strain mice; settings: once a day for 5 days
Protocol: (ii) Ehrlich ascites carcinoma cells (4×10^6 cells/head) were inoculated subcutaneously at the inguinal region into ICR-strain mice (female, 6 to 7 weeks old, each group consisting of 5 or 4 mice), and after 24 hours, the intraperitaneal or oral administration of a test drug was started and effected once a day for 5 days. The effect thereof was judged from the mean weight of tumor on the 13th or 15th day, respectively.
The test drug was used in the form of a solution or suspension in a saline solution or a 0.3% carboxymethyl cellulose-containing saline solution. [formula]

[3] = system: Ehrlich ascites carcinoma cells; assay: Effect on Ehrlich carcinoma (iii): subcutaneous inoculation at right armpit, mean tumor weight; type: in vivo, ICR-strain mice; settings: once a day for 7 days, 14th day
Protocol: (iii) Ehrlich ascites carcinoma cells (4×10^6 cells/head) were inoculated subcutaneously at the right armpit region into ICR-strain mice (female, 7 weeks old, each group consisting of 6 or 7 mice), and after 24 hours, the oral administration or subcutaneous administration at the dorsal region of a test drug was started, and effected once a day for 7 days. The effect thereof was judged from the mean weight of the tumor on the 14th day. The test drug was used in the form of a solution or suspension in a saline solution or a 0.3% carboxymethyl cellulose-containing saline solution.
T/C was calculated in the same manner as in above (ii).

[4] = Acute toxicity; settings: mouse, in vivo, ip
Source text: The test drugs were used in the form of a solution or suspension in a saline solution or a 0.3% carboxymethyl cellulose-containing saline solution.

[5] = system: HeLa S3 cells; assay: MIC value against HeLa S3 cells (microplate method); type: cell-based; settings: Homo sapiens, 96 h, 2×10^4 cells/ml, 4 days, Giemsa staining
Source text: as §1

[6] = system: B-16 melanoma cells; assay: Effect on B-16 melanoma: subcutaneous inoculation, mean tumor weight; type: in vivo, BDF1-strain mice
Protocol: B-16 melanoma cells (1×10^6 cells/head) were inoculated subcutaneously at the right armpit region into BDF1 -strain mice (male, 7 weeks old, each group consisting of 8 mice), and after 24 hours, the oral administration or subcutaneous administration at the […] […] The test drug was used in the form of a suspension or solution in a 0.3% carboxymethyl cellulose-containing saline solution or dimethylsulfoxide-propylene glycol (1:1) mixture. T/C was calculated in the same manner as in above b(ii).

[7] = system: Sarcoma 180 ascites cells; assay: Effect on Sarcoma 180 carcinoma: intraperitoneal inoculation, mean survival days; type: in vivo, ICR-strain mice; settings: once a day for 7 days; for Survival Ratio in Days Shown in Parenthesis: 32 days
Protocol: Sarcoma 180 ascites cells (1×10^6 cells/head) were inocualted intraperitoneally into ICR-strain mice (female, 6 weeks old, each group consisting of 4 or 5 mice), and after 24 hours, the intraperitoneal administration of a test drug was started, and effected once a day for 7 days. The effect thereof was judged from the mean survival days. The test drug was used in the form of a solution or suspension in a saline solution or a 0.3% carboxymethyl cellulose-containing saline solution. [formula]

[8] = system: P-388 ascites cells; assay: Effect on P-388 leukemia (ii): subcutaneous inoculation, mean tumor weight; type: in vivo, BDF1-strain mice; settings: oral, once a day for 7 days, 11th day
Protocol: (ii) P-388 ascites cells (1×10^6 cells/head) were inoculated subcutaneously at the right armpit into BDF1 -strain mice (male, 7 weeks old, each group consisting of 8 mice), and after 24 hours, the oral administration of a test drug was started, and effected once a day for 7 days. The effect thereof was judged from the mean weight of the tumor at the 11th day. The test drug was used in the form of a suspension or solution in a 0.3% carboxymethyl cellulose-containing saline solution or a dimethylsulfoxide-propylene glycolphosphate buffer (1:2:1) mixture. T/C was calculated in the same manner as in above b(ii).

[9] = system: L-1210 ascites cells; assay: Effect on L-1210 leukemia (i): intraperitoneal inoculation, mean survival days; type: in vivo, BDF1-strain mice
Protocol: (i) L-1210 ascites cells (1×10^5 cells/head) were inoculated intraperitoneally into BDF1 -strain mice (female, 6 weeks old, each group consisting of 4 mice), and after 24 hours, the intraperitoneal administration of a test drug was started and effected once a day. The effect thereof was judged from the mean survival days. The test drug was used in the form of a solution or suspension in a saline solution or a 0.3% carboxymethyl cellulose-containing saline solution.
T/C was calculated in the same manner as in above b (i).

[10] = system: Ehrlich ascites carcinoma cells; assay: Effect on Ehrlich carcinoma (i): intraperitoneal inoculation, mean survival days; type: in vivo, ICR-strain mice; settings: Mus musculus, ip, read-out: T/C (mean survival days)
Protocol: (i) Ehrlich ascites carcinoma cells (1×10^6 cells/head) were inoculated intraperitoneally into ICR-strain mice (female, 6 to 7 weeks old, each group consisting of 5 or 4 mice), and after 24 hours, the […] The effect thereof was judged from the mean survival days.
The test drugs were used in the form of a solution or suspension in a saline solution or a 0.3% carboxymethyl cellulose-containing saline solution. [formula]

[11] = system: Lewis lung carcinoma cells; assay: Effect on Lewis lung carcinoma: subcutaneous inoculation, average tumor weight; type: in vivo, BDF1-strain mice; settings: oral, once a day for 7 days, 21st day
Protocol: Lewis lung carcinoma cells (1×10^6 cells/head) were inoculated subcutaneously at the right armpit region into BDF1 -strain mice (male, 6 weeks old, each group consisting of 5 mice) and after 24 hours, the oral administration of a test drug was started and effected once a day for 7 days. The effect thereof was judged from the average weight of tumor on the 21st day. The test drug was used in the form of a suspension in a 0.3% carboxymethyl cellulose-containing saline solution. T/C was calculated in the same manner as in above b(ii).

[12] = 100 mg/kg, orally, 7 administrations, 18th day
[13] = 25 mg/kg, intraperitoneally, judgement day 13

| Structure (SMILES) | MIC [1] | T/C (mean tumor weight) ([3]; 50 mg/kg, orally) | T/C (mean tumor weight) ([3]; 50 mg/kg, subcutaneously) | T/C (mean tumor weight) ([3]; 100 mg/kg, orally) | LD50 at 168 h [4] | MIC [5] | T/C (mean tumor weight) [6, 12] | T/C (mean survival days) ([7]; 10 mg/kg) | Survival Ratio in Days Shown in Parenthesis ([7]; 10 mg/kg) | T/C (mean survival days) ([7]; 20 mg/kg) | Survival Ratio in Days Shown in Parenthesis ([7]; 20 mg/kg) | T/C (mean tumor weight) [2, 13] | other results |
| --- | --- | --- | --- | --- | --- | --- | --- | --- | --- | --- | --- | --- | --- |
| Nc1ccc(Nc2ccc(CN3CCN(Cc4ccccc4)C(=O)C3=O)cc2)nc1 [Compound 4] | < 0.05 mg/L | 82% | 15% | 65% | > 300 mg/kg | < 0.05 mg/L | 58% | > 221% | 4/5 | > 221% | 4/5 | – | T/C (mean tumor weight) ([2]; 250 mg/kg, orally, judgement day 15): 56.9%; T/C (mean tumor weight) ([6]; 25 mg/kg, subcutaneously, 7 administrations, 19th day): 38%; T/C (mean tumor weight) ([6]; 50 mg/kg, orally, 9 administrations, 21st day): 60%; T/C (mean tumor weight) ([6]; 50* mg/kg, orally, 7 administrations, 19th day, in dimethylsulfoxide-propylene glycol (1:1)): 71%; T/C (mean tumor weight) ([8]; 50 mg/kg): 79%; T/C (mean survival days) ([9]; 50 mg/kg, 9 administrations): 164.3%; T/C (mean survival days) ([9]; 100 mg/kg, 3 administrations): 161.9% |
| CCCCCCN1CCN(Cc2ccc(N(CC)CC)cc2)C(=O)C1=O [Compound 26] | 3.13 mg/L (≈ 8.71 µM) | – | – | – | – | 3.13 mg/L (≈ 8.71 µM) | – | – | – | – | – | 61% | T/C (mean tumor weight) ([2]; 6.25 mg/kg, intraperitoneally, judgement day 13): 64%; T/C (mean tumor weight) ([2]; 12.5 mg/kg, intraperitoneally, judgement day 13): 67%; response vs control in vivo at 40 mg/kg ([10]; 168 h, 40 mg/kg, once a day for 7 days): 157% |
| CCN(CC)c1ccc(CN2CCN(CCN)C(=O)C2=O)cc1 [Compound 37] | 25 mg/L (≈ 78.5 µM) | – | – | – | – | 25 mg/L (≈ 78.5 µM) | – | – | – | – | – | 54% | T/C (mean tumor weight) ([2]; 50 mg/kg, intraperitoneally, judgement day 13): 52%; T/C (mean tumor weight) ([2]; 100 mg/kg, intraperitoneally, judgement day 13): 65% |
| Nc1ccc(Nc2ccc(CN3CCN(Cc4ccccc4)C(=O)C3=O)cc2)nc1Cl [Compound 41] | < 0.05 mg/L | 78% | 54% | – | > 200 mg/kg | < 0.05 mg/L | 88% | > 193% | 1/5 | > 218% | 4/5 | – | T/C (average tumor weight) ([11]; 100 mg/kg): 65.9%; T/C (average tumor weight) ([11]; 200 mg/kg): 43.4%; T/C (mean tumor weight) ([6]; 50 mg/kg, subcutaneously, 3 administrations, 19th day): 37%; T/C (mean tumor weight) ([6]; 100* mg/kg, orally, 7 administrations, 19th day, in dimethylsulfoxide-propylene glycol (1:1)): 43%; T/C (mean tumor weight) ([8]; 200 mg/kg): 67%; response vs control in vivo at 50 mg/kg ([10]; 96 h, 50* mg/kg, once a day for 4 days): 195%; T/C (mean survival days) ([9]; 20 mg/kg, 7 administrations): 236% |
| Cc1nc(Nc2ccc(CN3CCN(Cc4ccccc4)C(=O)C3=O)cc2)ccc1N [Compound 42] | < 0.05 mg/L | – | – | 54% | – | < 0.05 mg/L | – | – | – | – | – | – | LD50 at 168 h ([4]; intraperitoneal, once, male mice, observed for 7 days): > 200 mg/kg; response vs control in vivo at 50 mg/kg ([10]; 168 h, 50 mg/kg, once a day for 7 days): 149%; T/C (mean survival days) ([9]; 50 mg/kg, 7 administrations): 148% |
